According to patent US10945932B2, “Prebiotic oral care compositions containing carboxylic acids” (COLGATE-PALMOLIVE COMPANY, priority 2013, dated 2021):

Experiments:
Assay type in all cases: cell-based
[1] = test system: beneficial oral bacteria and pathogenic oral bacteria; experiment: Metabolic activity, prebiotic effect over the whole panel; details: threshold value of 2
Protocol: (§1) The extent of metabolic activity of the tested bacteria in the presence of the above-mentioned acids after 24 hours and 48 hours was investigated through a high throughput phenotype microarray system (PM) for microbial cells (Biolog Inc.). Each PM can contain up to 95 different biochemical compounds (e.g. organic acids) that may act as substrates for bacteria as well as one negative control, not containing the substrates. Microarray plates were used in which the different wells of each plate were pre-loaded (by the manufacturer, Biolog Inc.) with different organic acids to be tested. Each bacterial species was tested using a separate microarray plate. Thus, a single bacterial species was tested with a variety of organic acids on each particular plate. The microarrays are based on redox technology, using cell respiration as a universal reporter. […] The observation of this color change indicates which of the substrates improve the metabolic activity and health of the cells.
(§2) Each bacterial species was collected from blood agar plates (incubated for 48 hours anaerobically at 37° C.) and transferred to an IF-0 Base inoculation fluid (Biolog Inc.), which is a nutritionally poor medium. […] A 1:5 dilution of this suspension was prepared by mixing 3 mL of the 42% transmittance cell suspension with 15 mL of an inoculation fluid (which inoculation fluid was formed by mixing 11.6 mL sterile water, 62.5 mL IF-0 base inoculation fluid and 0.9 mL of the tetrazolium dye “Biolog Redox Dye mix D”), resulting in a final cell density which was equal to 85% transmittance using a BioRad SmartSpec 3000 Photometer. For each of the acids tested, the microarray plate (obtained from the supplier (Biolog Inc.) with acid already present in the relevant wells in powder form) was directly inoculated with 100 μL/well of this 85% transmittance cell suspension.
(§3) All plates were incubated in an anaerobic atmosphere at 37° C. Color changes were measured spectrophotometrically at 492 nm (Thermo Scientific Multiskan Ascent) at 24 hrs and 48 hrs using the same plate at both time points.
(§4) The controls were also carried out three times, as above.

[2] = test system: Streptococcus mitis; experiment: Metabolic activity, Biolog phenotype microarray; details: S mitis
Protocol: as §1, §2, §3, §4

[3] = test system: Veillonella parvula; experiment: Metabolic activity, Biolog phenotype microarray; details: V parvula
Protocol: as §1, §2, §3, §4

[4] = test system: Tannerella forsythia; experiment: Metabolic activity, Biolog phenotype microarray; details: T forsythia
Protocol: as §1, §2, §3, §4

[5] = test system: Aggregatibacter actinomycetemcomitans; experiment: Metabolic activity, Biolog phenotype microarray; details: A actinomycetemcomitans
Protocol: as §1, §2, §3, §4

[6] = test system: Porphyromonas gingivalis; experiment: Metabolic activity, Biolog phenotype microarray; details: P gingivalis
Protocol: as §1, §2, §3, §4

[7] = test system: Prevotella intermedia; experiment: Metabolic activity, Biolog phenotype microarray; details: P intermedia
Protocol: as §1, §2, §3, §4

[8] = test system: Streptococcus sobrinus; experiment: Metabolic activity, Biolog phenotype microarray; details: S sobrinus
Protocol: as §1, §2, §3, §4

[9] = test system: Actinomyces naeslundii; experiment: Metabolic activity, Biolog phenotype microarray; details: A naeslundii
Protocol: as §1, §2, §3, §4

[10] = test system: Streptococcus sanguinis; experiment: Metabolic activity, Biolog phenotype microarray; details: S sanguinis
Protocol: as §1, §2, §3, §4

[11] = test system: Actinomyces viscosus; experiment: Metabolic activity, Biolog phenotype microarray; details: A viscosus
Protocol: as §1, §2, §3, §4

[12] = test system: Streptococcus mutans; experiment: Metabolic activity, Biolog phenotype microarray; details: S mutans
Protocol: as §1, §2, §3, §4

[13] = test system: Streptococcus gordonii; experiment: Metabolic activity, Biolog phenotype microarray; details: S gordonii
Protocol: as §1, §2, §3, §4

[14] = test system: Fusobacterium nucleatum; experiment: Metabolic activity, Biolog phenotype microarray; details: F nucleatum
Protocol: as §1, §2, §3, §4

[15] = test system: Capnocytophaga sputigena; experiment: Metabolic activity, Biolog phenotype microarray; details: C sputigena
Protocol: as §1, §2, §3, §4

[16] = test system: Streptococcus salivarius; experiment: Metabolic activity, Biolog phenotype microarray; details: S salivarius
Protocol: as §1, §2, §3, §4

| SMILES | metabolic activity, OD at 492 nm divided by OD of control (control = 1) ([2]; 24 hrs) | metabolic activity, OD at 492 nm divided by OD of control (control = 1) ([2]; 48 hrs) | metabolic activity, OD at 492 nm divided by OD of control (control = 1) ([3]; 24 hrs) | metabolic activity, OD at 492 nm divided by OD of control (control = 1) ([3]; 48 hrs) | metabolic activity, OD at 492 nm divided by OD of control (control = 1) ([4]; 24 hrs) | metabolic activity, OD at 492 nm divided by OD of control (control = 1) ([4]; 48 hrs) | metabolic activity, OD at 492 nm divided by OD of control (control = 1) ([5]; 24 hrs) | metabolic activity, OD at 492 nm divided by OD of control (control = 1) ([5]; 48 hrs) | metabolic activity, OD at 492 nm divided by OD of control (control = 1) ([6]; 24 hrs) | metabolic activity, OD at 492 nm divided by OD of control (control = 1) ([6]; 48 hrs) | metabolic activity, OD at 492 nm divided by OD of control (control = 1) ([7]; 24 hrs) | metabolic activity, OD at 492 nm divided by OD of control (control = 1) ([7]; 48 hrs) | metabolic activity, OD at 492 nm divided by OD of control (control = 1) ([8]; 24 hrs) | metabolic activity, OD at 492 nm divided by OD of control (control = 1) ([8]; 48 hrs) | metabolic activity, OD at 492 nm divided by OD of control (control = 1) ([9]; 24 hrs) | metabolic activity, OD at 492 nm divided by OD of control (control = 1) ([9]; 48 hrs) | metabolic activity, OD at 492 nm divided by OD of control (control = 1) ([10]; 24 hrs) | metabolic activity, OD at 492 nm divided by OD of control (control = 1) ([10]; 48 hrs) | metabolic activity, OD at 492 nm divided by OD of control (control = 1) ([11]; 24 hrs) | metabolic activity, OD at 492 nm divided by OD of control (control = 1) ([11]; 48 hrs) | also measured |
| --- | --- | --- | --- | --- | --- | --- | --- | --- | --- | --- | --- | --- | --- | --- | --- | --- | --- | --- | --- | --- | --- |
| O=C(O)C[C@H](O)C(=O)O [L-malic acid] | 0.9743 | 0.8207 | 2.0256 | 1.5012 | 0.9252 | 0.9462 | 1.6257 | 1.9196 | 0.8367 | 0.8279 | 0.9958 | 1.0146 | 1.0506 | 0.9898 | 0.9796 | 0.9086 | 0.8788 | 0.9018 | 0.9803 | 1.0090 | prebiotic effect (metabolic activity) ([1]; 24 hrs): exhibited prebiotic effects; metabolic activity, OD at 492 nm divided by OD of control (control = 1) ([12]; 24 hrs): 0.9627; metabolic activity, OD at 492 nm divided by OD of control (control = 1) ([12]; 48 hrs): 0.8760; metabolic activity, OD at 492 nm divided by OD of control (control = 1) ([13]; 24 hrs): 0.9161; metabolic activity, OD at 492 nm divided by OD of control (control = 1) ([13]; 48 hrs): 0.8652; metabolic activity, OD at 492 nm divided by OD of control (control = 1) ([14]; 24 hrs): 0.8813; metabolic activity, OD at 492 nm divided by OD of control (control = 1) ([14]; 48 hrs): 0.8215; metabolic activity, OD at 492 nm divided by OD of control (control = 1) ([15]; 24 hrs): 0.8764; metabolic activity, OD at 492 nm divided by OD of control (control = 1) ([15]; 48 hrs): 0.8870; metabolic activity, OD at 492 nm divided by OD of control (control = 1) ([16]; 24 hrs): 0.9740; metabolic activity, OD at 492 nm divided by OD of control (control = 1) ([16]; 48 hrs): 0.9426 |
| O=C(O)[C@H](O)[C@@H](O)[C@H](O)[C@H](O)CO[C@H]1O[C@H](CO)[C@H](O)[C@H](O)[C@H]1O [Melibionic acid, melibionic acid] | 1.0443 | 0.9983 | 0.8685 | 0.6981 | 1.0848 | 1.1865 | 0.9361 | 0.8912 | 0.8689 | 0.9301 | 1.0625 | 1.0988 | 1.1366 | 1.1222 | 1.2539 | 1.3926 | 1.0430 | 1.0832 | 1.6342 | 2.0904 | prebiotic effect (metabolic activity) ([1]; 48 hrs): exhibited prebiotic effects; metabolic activity, OD at 492 nm divided by OD of control (control = 1) ([12]; 24 hrs): 1.1010; metabolic activity, OD at 492 nm divided by OD of control (control = 1) ([12]; 48 hrs): 1.0362; metabolic activity, OD at 492 nm divided by OD of control (control = 1) ([13]; 24 hrs): 1.0326; metabolic activity, OD at 492 nm divided by OD of control (control = 1) ([13]; 48 hrs): 0.9389; metabolic activity, OD at 492 nm divided by OD of control (control = 1) ([14]; 24 hrs): 0.9131; metabolic activity, OD at 492 nm divided by OD of control (control = 1) ([14]; 48 hrs): 0.8299; metabolic activity, OD at 492 nm divided by OD of control (control = 1) ([15]; 24 hrs): 0.6213; metabolic activity, OD at 492 nm divided by OD of control (control = 1) ([15]; 48 hrs): 0.9143; metabolic activity, OD at 492 nm divided by OD of control (control = 1) ([16]; 24 hrs): 0.9984; metabolic activity, OD at 492 nm divided by OD of control (control = 1) ([16]; 48 hrs): 0.9237 |
